{"source": "paper PMC5790609", "about": "(Journal of neuroimmune pharmacology : the official journal …, 2017)", "key": {"[1]": {"tested_on": "TSPO (C/T rs6971 genotype)", "experiment": "[3H]-DPA-713 dissociation kinetics, platelet lysates, C/T genotype", "format": "binding, human", "conditions": "for effect on rate of dissociation of [3H]-DPA-713 vs. excess DPA-713: PK11195 5 μM, cholesterol 1.2 μM"}, "[2]": {"molecular_target": "TSPO (C/C rs6971 genotype) (Homo sapiens, UniProt P30536)", "sequence (P30536 whole entry)": "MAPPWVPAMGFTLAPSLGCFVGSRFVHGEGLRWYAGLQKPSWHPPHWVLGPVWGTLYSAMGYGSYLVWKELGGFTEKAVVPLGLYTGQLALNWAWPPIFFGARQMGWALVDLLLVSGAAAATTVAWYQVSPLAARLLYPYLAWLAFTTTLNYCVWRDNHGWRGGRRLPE", "experiment": "[3H]-DPA-713 dissociation kinetics, platelet lysates, C/C genotype", "format": "binding", "conditions": "PK11195 5 μM, cholesterol 1.2 μM"}, "[3]": {"conditions": "ref Vivash and O'Brien 2016; cited from earlier work"}, "[4]": {"molecular_target": "TSPO (T/T rs6971 genotype) (Homo sapiens, UniProt P30536)", "sequence (P30536 2-169)": "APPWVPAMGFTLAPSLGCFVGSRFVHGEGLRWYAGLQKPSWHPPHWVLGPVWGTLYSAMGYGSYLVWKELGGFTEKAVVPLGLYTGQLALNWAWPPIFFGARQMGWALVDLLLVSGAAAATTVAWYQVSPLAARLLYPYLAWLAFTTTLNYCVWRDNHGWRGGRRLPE", "experiment": "[3H]-DPA-713 dissociation kinetics, platelet lysates, T/T genotype", "format": "binding", "conditions": "PK11195 5 μM, cholesterol 1.2 μM"}}}
{"smiles": "CCN(CC)C(=O)Cc1c(-c2ccc(OC)cc2)nn2c(C)cc(C)nc12", "note": "[DPA-713]", "values": [{"measurement": "dissociation rates of [3H]-DPA-713 with 2 vs. 12 μM DPA-713", "setting": "[1]", "value": "the same"}]}
{"smiles": "CCC(C)N(C)C(=O)c1cc2ccccc2c(-c2ccccc2Cl)n1", "note": "(centres unmarked) [PK11195]", "values": [{"measurement": "effect on rate of dissociation of [3H]-DPA-713 vs. excess DPA-713", "setting": "[2]", "value": "the same"}, {"measurement": "non-specific plasma protein binding", "setting": "[3]", "value": "high"}, {"measurement": "effect on rate of dissociation of [3H]-DPA-713 vs. excess DPA-713", "setting": "[1]", "value": "the same"}, {"measurement": "effect on rate of dissociation of [3H]-DPA-713 vs. excess DPA-713", "setting": "[4]", "value": "accelerated"}]}
{"smiles": "CC(C)CCC[C@@H](C)[C@H]1CC[C@H]2[C@@H]3CC=C4C[C@@H](O)CC[C@]4(C)[C@H]3CC[C@]12C", "note": "[cholesterol]", "values": [{"measurement": "effect on rate of dissociation of [3H]-DPA-713 vs. excess DPA-713", "setting": "[2]", "value": "the same"}, {"measurement": "effect on rate of dissociation of [3H]-DPA-713 vs. excess DPA-713", "setting": "[1]", "value": "the same"}, {"measurement": "effect on rate of dissociation of [3H]-DPA-713 vs. excess DPA-713", "setting": "[4]", "value": "accelerated"}]}
